Laboratory results reported in patent US5723576A, “Thrombin inhibitors, the preparation thereof and the use thereof for therapeutical, prophylactic and diagnostic applications” (Development Biotechnological Processes S.N.C., priority 1993, dated 1998).
Where two headings read alike, the source gives them in different places. Square brackets hold non-standard residues; d marks the D form. Peptide text beside a SMILES is read from it. 2Nal = N[C@@H](Cc1ccc2ccccc2c1)C(=O)O; hPhe = N[C@@H](CCc1ccccc1)C(=O)O; Cha = N[C@@H](CC1CCCCC1)C(=O)O; Chg = N[C@H](C(=O)O)C1CCCCC1; Aib = CC(C)(N)C(=O)O; βAla = NCCC(=O)O

Key:
[1] = molecular target: T1, thrombin (Homo sapiens, UniProt P00734); settings: non covalent 1:1 complex; read-out: Ki of hirudin binding to thrombin; cited from earlier work
[2] = tested on: T2, human α-thrombin; experiment: In vitro resistance of the peptides to enzyme hydrolysis by thrombin; format: in vitro ADME; settings: isolated enzyme thrombin; human a-thrombin, Tris/HCl buffer pH 7.8, 37° C.; read-out: τt: halving time of the inhibitor concentration in the presence of thrombin alone
T2 construct: human a-thrombin
Procedure: (§1) The resistance of the compounds of the present invention versus plasmatic proteases was evaluated in vitro in two groups of tests. In the first one, the resistance to proteolysis of thrombin itself was tested incubating the claimed compounds in the presence of thrombin and analysing the mixture at different times. In the second one, the claimed compounds were incubated in plasma of healthy volunteers and, after filtration of the plasma proteins, the supernatants were analyzed by HPLC and capillary electrophoresis.
(§2) In vitro determination of the peptide resistance to enzyme hydrolysis by thrombin.
(§3) 97.2 nmol of hirunorm-I (286 μg), hirunorm-II (285 μg), hirunorm-III (293 μg), were incubated separately with 0.972 nmol of human a-thrombin (35 μg, 3110 Units NIH/mg) in 800 μL of 0.05M Tris/HCl buffer, 0.1M NaCl at pH-7.8 and a temperature of 37° C. 50 μL Aliquots were diluted with 200 μL of 100 mN H3 PO4 and analyzed at pre-set times by capillary electrophoresis on a […] silica Waters capillary, using a Waters Quanta 4000 apparatus fitted with an UV detection at 214 nm. The analyses were carried out at a constant voltage of 18 KV, using a 100 mN phosphoric acid buffer for 25 min. The eluted peaks were collected and analyzed by Fab mass spectrometry.
(§4) ^.sctn. The factors tt and tp are the halving times (min) o
(§5) the inhibitor concentrations in the presence of equimolar amounts of
(§6) thrombin, respectively both alone and in human plasma.

[3] = In vitro resistance of the peptides to hydrolysis by plasma proteases; format: in vitro ADME; settings: human plasma from healthy donors, 37° C.; read-out: τp: halving time of the inhibitor concentration in human plasma
Procedure: as §1
In vitro determination of the peptides resistance to hydrolysis by plasma proteases.
[…] of hirunorm-I […], hirunorm-II (569 μg), hirunorm-III (585 μg), were separately incubated with 1600 μL of human plasma from heal thy donors at 37° C. for different times. 50 μL aliquots were added with 200 μL of 100 mN H3 PO4. The supernatants were analyzed at pre-set times by HPLC on a Vydac C18 0.46×25 cm column with a straight acetonitrile gradient containing 0.1% (v/v) of trifluoroacetic acid (phase B) against 0.1% (v/v) aqueous trifluoroacetic acid (phase A), from 5 to 70% in B in 35 min at a flow rate of 1 mL/min, with detection at 210 nm. The eluted peaks were collected and analyzed by capillary electrophoresis on a […]×60 cm fused silica Waters capillary, fitted with a UV detector at 214 nm. The analyses were carried out at a constant voltage of 18 KV, using a buffer 100 mN acid phosphoric for 25 min. The eluted peaks were then analyzed by means of Fab mass spectrometry.
as §4, §5, §6

[4] = molecular target: T1, thrombin; experiment: Inhibition of thrombin-mediated hydrolysis of Chromozym TH (Ki); format: biochemical; settings: read-out: Ki: hydrolysis inhibition constant of a chromogenic substrate
Procedure: Moreover, the efficacy of the products of the present invention was also evaluated determining the inhibition constants Ki versus thrombin, using chromogenic substrates.
The inhibition of the hydrolysis, mediated by thrombin, of Chromozym TH by the peptides of the present invention was evaluated according to the literature (Stone, S. R., Hofsteenge, J., Biochemistry, 25, 4622, (1986).
°The hydrolysis inhibition constants of a chromogenic substrate ar

[5] = molecular target: T3, human a-thrombin (Homo sapiens, UniProt P00734); experiment: In vitro resistance of the peptides to enzyme hydrolysis by thrombin; format: in vitro ADME; settings: Tris/HCl buffer pH 7.8, 37° C.
T3 construct: human a-thrombin
Procedure: as §1, §2, §3, §4, §5, §6

| Compound | Ki [1] [nM] | half-life at 121.5 µM [2] [h] | half-life at 1.21 µM [3] [h] | Ki [4] [nM] | τt: halving time of the inhibitor concentration in the presence of thrombin alone [5] [min] |
| --- | --- | --- | --- | --- | --- |
| Hirudin | 0.063 |  |  |  |  |
| CC[C@H](C)[C@H](N)C(=O)N[C@@H](CCCNC(=N)N)C(=O)N[C@@H](Cc1ccc(O)cc1)C(=O)N[C@H](C(=O)N[C@@H](CC(=O)O)C(=O)N[C@H](C)C(=O)NCCC(=O)NCCC(=O)N1CCC[C@H]1C(=O)N[C@@H](CCC(=O)O)C(=O)N[C@@H](CC(N)=O)C(=O)N[C@@H](Cc1c[nH]cn1)C(=O)N[C@@H](CC(N)=O)C(=O)N[C@@H](CC(N)=O)C(=O)NCC(=O)N[C@@H](CC(=O)O)C(=O)N[C@@H](Cc1ccccc1)C(=O)N[C@@H](CCC(=O)O)C(=O)N[C@@H](CCC(=O)O)C(=O)N[C@H](C(=O)N1CCC[C@H]1C(=O)NC(C)(C)C(=O)NC(C)(C)C(=O)N[C@@H](Cc1ccc(O)cc1)C(=O)N[C@@H](CC(C)C)C(=O)N[C@@H](CCC(=O)O)C(=O)O)[C@@H](C)CC)[C@@H](C)O [Hirunorm-I] (HELM PEPTIDE1{I.R.Y.T.D.[dA].[bAla].[bAla].P.E.N.H.N.N.G.D.F.E.E.I.P.[Aib].[Aib].Y.L.E}$$$$V2.0) |  | > 8 | 5 | 97 |  |
| CC[C@H](C)[C@H](NC(=O)[C@H](CCC(=O)O)NC(=O)[C@H](CCC(=O)O)NC(=O)[C@H](Cc1ccc(O)cc1)NC(=O)[C@H](CC(=O)O)NC(=O)CNC(=O)CNC(=O)[C@H](CCc1ccccc1)NC(=O)[C@H](Cc1c[nH]cn1)NC(=O)[C@H](CO)NC(=O)[C@H](CCC(=O)O)NC(=O)[C@@H]1CCCN1C(=O)CCNC(=O)CNC(=O)[C@@H](C)NC(=O)[C@H](CC(=O)O)NC(=O)[C@@H](NC(=O)[C@H](Cc1ccc2ccccc2c1)NC(=O)[C@@H](NC(=O)[C@@H](N)C1CCCCC1)C(C)C)[C@@H](C)O)C(=O)N1CCC[C@H]1C(=O)NC(C)(C)C(=O)NC(C)(C)C(=O)N[C@@H](Cc1ccc(O)cc1)C(=O)N[C@@H](CC1CCCCC1)C(=O)N[C@H](CCC(=O)O)C(=O)O [Hirunorm-V] (H-[Chg]V[2Nal]TD[dA]G[βAla]PESH[hPhe]GGDYEEIP[Aib][Aib]Y[Cha][dE]-OH) |  |  |  | 1 |  |
| CC[C@H](C)[C@H](NC(=O)[C@H](CCC(=O)O)NC(=O)[C@H](CCC(=O)O)NC(=O)[C@H](Cc1ccc(O)cc1)NC(=O)[C@H](CC(=O)O)NC(=O)CNC(=O)CNC(=O)[C@H](CCc1ccccc1)NC(=O)[C@H](Cc1c[nH]cn1)NC(=O)[C@H](CO)NC(=O)[C@H](CCC(=O)O)NC(=O)[C@@H]1CCCN1C(=O)CCNC(=O)CNC(=O)[C@@H](C)NC(=O)[C@H](CC(=O)O)NC(=O)[C@@H](NC(=O)[C@H](Cc1ccc2ccccc2c1)NC(=O)[C@H](CCCNC(=N)N)NC(=O)[C@@H](N)C1CCCCC1)[C@@H](C)O)C(=O)N1CCC[C@H]1C(=O)NC(C)(C)C(=O)NC(C)(C)C(=O)N[C@@H](Cc1ccc(O)cc1)C(=O)N[C@@H](CC1CCCCC1)C(=O)N[C@H](CCC(=O)O)C(=O)O [Hirunorm-IV] (H-[Chg]R[2Nal]TD[dA]G[βAla]PESH[hPhe]GGDYEEIP[Aib][Aib]Y[Cha][dE]-OH) |  |  |  | 2.6 |  |
| CC[C@H](C)[C@H](N)C(=O)N[C@@H](CCCNC(=N)N)C(=O)N[C@@H](Cc1ccccc1)C(=O)N[C@H](C(=O)N[C@@H](CC(=O)O)C(=O)N[C@H](C)C(=O)NCC(=O)NCCC(=O)N1CCC[C@H]1C(=O)N[C@@H](CCC(=O)O)C(=O)N[C@@H](CO)C(=O)N[C@@H](Cc1c[nH]cn1)C(=O)N[C@@H](CCc1ccccc1)C(=O)NCC(=O)NCC(=O)N[C@@H](CC(=O)O)C(=O)N[C@@H](Cc1ccc(O)cc1)C(=O)N[C@@H](CCC(=O)O)C(=O)N[C@@H](CCC(=O)O)C(=O)N[C@H](C(=O)N1CCC[C@H]1C(=O)NC(C)(C)C(=O)NC(C)(C)C(=O)N[C@@H](Cc1ccc(OP(=O)(O)O)cc1)C(=O)N[C@@H](CC1CCCCC1)C(=O)N[C@H](CCC(=O)O)C(=O)O)[C@@H](C)CC)[C@@H](C)O [Hirunorm-III] (HELM PEPTIDE1{I.R.F.T.D.[dA].G.[bAla].P.E.S.H.[O=C([C@H](CCc1ccccc1)N[*:1])[*:2]].G.G.D.Y.E.E.I.P.[Aib].[Aib].[O=C([C@H](Cc1ccc(OP(=O)(O)O)cc1)N[*:1])[*:2]].[Cha].[dE]}$$$$V2.0) |  |  | 8 | 1 | > 480 |
| CC[C@H](C)[C@H](N)C(=O)N[C@@H](CCCNC(=N)N)C(=O)N[C@@H](Cc1ccccc1)C(=O)N[C@H](C(=O)N[C@@H](CC(=O)O)C(=O)N[C@H](C)C(=O)NCC(=O)NCCC(=O)N1CCC[C@H]1C(=O)N[C@@H](CCC(=O)O)C(=O)N[C@@H](CO)C(=O)N[C@@H](Cc1c[nH]cn1)C(=O)N[C@@H](CCc1ccccc1)C(=O)NCC(=O)NCC(=O)N[C@@H](CC(=O)O)C(=O)N[C@@H](Cc1ccc(O)cc1)C(=O)N[C@@H](CCC(=O)O)C(=O)N[C@@H](CCC(=O)O)C(=O)N[C@H](C(=O)N1CCC[C@H]1C(=O)NC(C)(C)C(=O)NC(C)(C)C(=O)N[C@@H](Cc1ccc(O)cc1)C(=O)N[C@@H](CC1CCCCC1)C(=O)N[C@H](CCC(=O)O)C(=O)O)[C@@H](C)CC)[C@@H](C)O [Hirunorm-II] (HELM PEPTIDE1{I.R.F.T.D.[dA].G.[bAla].P.E.S.H.[O=C([C@H](CCc1ccccc1)N[*:1])[*:2]].G.G.D.Y.E.E.I.P.[Aib].[Aib].Y.[Cha].[dE]}$$$$V2.0) |  |  | 8 | 2.6 | > 480 |
